Assay results reported in PubChem BioAssay (NCI).
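Cells were grown in 96-well plates and exposed to each compound for 48 hours at five concentrations; endpoints were interpolated linearly between bracketing concentrations, or set to the highest concentration if not reached. GI50 = concentration required for 50% inhibition of growth. Definition used: TGI = concentration required for complete inhibition of growth.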

Tested on: SNB-75 CNS
Assay: inhibition of tumour cell growth, NCI panel, 48 h

First: CC[C@H](NC(=O)[C@H](C)NC)C(=O)N1C[C@@H](O)C[C@H]1Cc1c(-c2[nH]c3cc(F)ccc3c2C[C@@H]2C[C@H](O)CN2C(=O)[C@H](CC)NC(=O)[C@H](C)NC)[nH]c2cc(F)ccc12
Second: Cc1ccccc1NC(=O)N/C(N)=N/c1nc(-c2cccc([N+](=O)[O-])c2)cs1
The GI50 of the first is 2.1-fold higher: 2.65 µM for the first, 1.28 µM for the second.

Going from `CC[C@H](NC(=O)[C@H](C)NC)C(=O)N1C[C@@H](O)C[C@H]1Cc1c(-c2[nH]c3cc(F)ccc3c2C[C@@H]2C[C@H](O)CN2C(=O)[C@H](CC)NC(=O)[C@H](C)NC)[nH]c2cc(F)ccc12` to `Cc1ccccc1NC(=O)N/C(N)=N/c1nc(-c2cccc([N+](=O)[O-])c2)cs1`, the TGI falls from over 100 µM to 3.62 µM.

Tested on: EKVX NSCLC
Assay: inhibition of tumour cell growth, NCI panel, 48 h

`CC(=O)N1C(=O)CC2(N=C(C)CC2=O)c2ccccc21` (stereo unspecified) and `Cc1ccccc1NC(=O)N/C(N)=N/c1nc(-c2cccc([N+](=O)[O-])c2)cs1` cannot be ordered by TGI: over 10 µM for the first, over 100 µM for the second.

For `CSc1ccc(C2=NN(C(=O)c3ccc(F)cc3)C(c3ccc(F)cc3)C2)cc1` (stereo unspecified), the TGI was 37 µM.

Going from `CSc1ccc(C2=NN(C(=O)c3ccc(F)cc3)C(c3ccc(F)cc3)C2)cc1` (stereo unspecified) to `Cc1ccccc1NC(=O)N/C(N)=N/c1nc(-c2cccc([N+](=O)[O-])c2)cs1`, the GI50 falls from 18.9 µM to 1.94 µM (9.7-fold).

Tested on: SW-620 colon
Assay: inhibition of tumour cell growth, NCI panel, 48 h

`CC(=O)N1C(=O)CC2(N=C(C)CC2=O)c2ccccc21` (stereo unspecified) and `Cc1ccccc1NC(=O)N/C(N)=N/c1nc(-c2cccc([N+](=O)[O-])c2)cs1` cannot be ordered by TGI: over 10 µM for the first, over 100 µM for the second.

Going from `CSc1ccc(C2=NN(C(=O)c3ccc(F)cc3)C(c3ccc(F)cc3)C2)cc1` (stereo unspecified) to `CC[C@H](NC(=O)[C@H](C)NC)C(=O)N1C[C@@H](O)C[C@H]1Cc1c(-c2[nH]c3cc(F)ccc3c2C[C@@H]2C[C@H](O)CN2C(=O)[C@H](CC)NC(=O)[C@H](C)NC)[nH]c2cc(F)ccc12`, the TGI rises from 34.2 µM to over 100 µM.

First: CSc1ccc(C2=NN(C(=O)c3ccc(F)cc3)C(c3ccc(F)cc3)C2)cc1 (stereo unspecified)
Second: Cc1ccccc1NC(=O)N/C(N)=N/c1nc(-c2cccc([N+](=O)[O-])c2)cs1
The GI50 of the first is 6.2-fold higher: 14.2 µM for the first, 2.3 µM for the second.

With `CC[C@H](NC(=O)[C@H](C)NC)C(=O)N1C[C@@H](O)C[C@H]1Cc1c(-c2[nH]c3cc(F)ccc3c2C[C@@H]2C[C@H](O)CN2C(=O)[C@H](CC)NC(=O)[C@H](C)NC)[nH]c2cc(F)ccc12` the GI50 was over 100 µM.

Tested on: MCF7 breast
Assay: inhibition of tumour cell growth, NCI panel, 48 h

Compared with `CSc1ccc(C2=NN(C(=O)c3ccc(F)cc3)C(c3ccc(F)cc3)C2)cc1` (stereo unspecified), `Cc1ccccc1NC(=O)N/C(N)=N/c1nc(-c2cccc([N+](=O)[O-])c2)cs1` is 3.4-fold lower in GI50: 4.98 µM for the first, 1.47 µM for the second.

`CC[C@H](NC(=O)[C@H](C)NC)C(=O)N1C[C@@H](O)C[C@H]1Cc1c(-c2[nH]c3cc(F)ccc3c2C[C@@H]2C[C@H](O)CN2C(=O)[C@H](CC)NC(=O)[C@H](C)NC)[nH]c2cc(F)ccc12` showed a GI50 of over 53.3 µM.

First: CSc1ccc(C2=NN(C(=O)c3ccc(F)cc3)C(c3ccc(F)cc3)C2)cc1 (stereo unspecified)
Second: Cc1ccccc1NC(=O)N/C(N)=N/c1nc(-c2cccc([N+](=O)[O-])c2)cs1
The TGI of the first is lower: 17.9 µM for the first, over 100 µM for the second.

For `CC[C@H](NC(=O)[C@H](C)NC)C(=O)N1C[C@@H](O)C[C@H]1Cc1c(-c2[nH]c3cc(F)ccc3c2C[C@@H]2C[C@H](O)CN2C(=O)[C@H](CC)NC(=O)[C@H](C)NC)[nH]c2cc(F)ccc12`, the TGI was over 100 µM.

Tested on: K-562 leukemia
Assay: inhibition of tumour cell growth, NCI panel, 48 h

`CCOC(=O)C(Cl)(NC(=O)NC(Cl)(C(=O)OCC)C(F)(F)F)C(F)(F)F` (stereo unspecified) and `CC[C@H](NC(=O)[C@H](C)NC)C(=O)N1C[C@@H](O)C[C@H]1Cc1c(-c2[nH]c3cc(F)ccc3c2C[C@@H]2C[C@H](O)CN2C(=O)[C@H](CC)NC(=O)[C@H](C)NC)[nH]c2cc(F)ccc12` cannot be ordered by TGI: over 100 µM for the first, over 100 µM for the second.

First: CSc1ccc(C2=NN(C(=O)c3ccc(F)cc3)C(c3ccc(F)cc3)C2)cc1 (stereo unspecified)
Second: Cc1ccccc1NC(=O)N/C(N)=N/c1nc(-c2cccc([N+](=O)[O-])c2)cs1
The TGI of the first is lower: 16.6 µM for the first, over 100 µM for the second.

Going from `CSc1ccc(C2=NN(C(=O)c3ccc(F)cc3)C(c3ccc(F)cc3)C2)cc1` (stereo unspecified) to `Cc1ccccc1NC(=O)N/C(N)=N/c1nc(-c2cccc([N+](=O)[O-])c2)cs1`, the GI50 falls from 3.91 µM to 0.555 µM (7-fold).

`CC[C@H](NC(=O)[C@H](C)NC)C(=O)N1C[C@@H](O)C[C@H]1Cc1c(-c2[nH]c3cc(F)ccc3c2C[C@@H]2C[C@H](O)CN2C(=O)[C@H](CC)NC(=O)[C@H](C)NC)[nH]c2cc(F)ccc12` showed a GI50 of 47.3 µM.

Tested on: MALME-3M melanoma
Assay: inhibition of tumour cell growth, NCI panel, 48 h

First: CSc1ccc(C2=NN(C(=O)c3ccc(F)cc3)C(c3ccc(F)cc3)C2)cc1 (stereo unspecified)
Second: Cc1ccccc1NC(=O)N/C(N)=N/c1nc(-c2cccc([N+](=O)[O-])c2)cs1
The GI50 of the first is 13-fold higher: 12.1 µM for the first, 0.943 µM for the second.

`CC[C@H](NC(=O)[C@H](C)NC)C(=O)N1C[C@@H](O)C[C@H]1Cc1c(-c2[nH]c3cc(F)ccc3c2C[C@@H]2C[C@H](O)CN2C(=O)[C@H](CC)NC(=O)[C@H](C)NC)[nH]c2cc(F)ccc12` gave a GI50 of over 100 µM.

First: CSc1ccc(C2=NN(C(=O)c3ccc(F)cc3)C(c3ccc(F)cc3)C2)cc1 (stereo unspecified)
Second: Cc1ccccc1NC(=O)N/C(N)=N/c1nc(-c2cccc([N+](=O)[O-])c2)cs1
The TGI of the first is 5.5-fold higher: 26 µM for the first, 4.73 µM for the second.

Compound `CC[C@H](NC(=O)[C@H](C)NC)C(=O)N1C[C@@H](O)C[C@H]1Cc1c(-c2[nH]c3cc(F)ccc3c2C[C@@H]2C[C@H](O)CN2C(=O)[C@H](CC)NC(=O)[C@H](C)NC)[nH]c2cc(F)ccc12` has a TGI of over 100 µM.

Tested on: OVCAR-5 ovarian
Assay: inhibition of tumour cell growth, NCI panel, 48 h

`CCOC(=O)C(Cl)(NC(=O)NC(Cl)(C(=O)OCC)C(F)(F)F)C(F)(F)F` (stereo unspecified) and `CC[C@H](NC(=O)[C@H](C)NC)C(=O)N1C[C@@H](O)C[C@H]1Cc1c(-c2[nH]c3cc(F)ccc3c2C[C@@H]2C[C@H](O)CN2C(=O)[C@H](CC)NC(=O)[C@H](C)NC)[nH]c2cc(F)ccc12` cannot be ordered by TGI: over 100 µM for the first, over 100 µM for the second.

`CC(=O)N1C(=O)CC2(N=C(C)CC2=O)c2ccccc21` (stereo unspecified) and `Cc1ccccc1NC(=O)N/C(N)=N/c1nc(-c2cccc([N+](=O)[O-])c2)cs1` cannot be ordered by TGI: over 10 µM for the first, over 100 µM for the second.

`CSc1ccc(C2=NN(C(=O)c3ccc(F)cc3)C(c3ccc(F)cc3)C2)cc1` (stereo unspecified) showed a TGI of 33.3 µM.

First: CSc1ccc(C2=NN(C(=O)c3ccc(F)cc3)C(c3ccc(F)cc3)C2)cc1 (stereo unspecified)
Second: Cc1ccccc1NC(=O)N/C(N)=N/c1nc(-c2cccc([N+](=O)[O-])c2)cs1
The GI50 of the first is 4.2-fold higher: 18.2 µM for the first, 4.34 µM for the second.

In the case of `CC[C@H](NC(=O)[C@H](C)NC)C(=O)N1C[C@@H](O)C[C@H]1Cc1c(-c2[nH]c3cc(F)ccc3c2C[C@@H]2C[C@H](O)CN2C(=O)[C@H](CC)NC(=O)[C@H](C)NC)[nH]c2cc(F)ccc12`, the GI50 is reported as over 100 µM.

Tested on: U251 CNS
Assay: inhibition of tumour cell growth, NCI panel, 48 h

`CCOC(=O)C(Cl)(NC(=O)NC(Cl)(C(=O)OCC)C(F)(F)F)C(F)(F)F` (stereo unspecified) and `CC[C@H](NC(=O)[C@H](C)NC)C(=O)N1C[C@@H](O)C[C@H]1Cc1c(-c2[nH]c3cc(F)ccc3c2C[C@@H]2C[C@H](O)CN2C(=O)[C@H](CC)NC(=O)[C@H](C)NC)[nH]c2cc(F)ccc12` cannot be ordered by TGI: over 100 µM for the first, over 100 µM for the second.

`CC(=O)N1C(=O)CC2(N=C(C)CC2=O)c2ccccc21` (stereo unspecified) and `Cc1ccccc1NC(=O)N/C(N)=N/c1nc(-c2cccc([N+](=O)[O-])c2)cs1` cannot be ordered by TGI: over 10 µM for the first, 10.5 µM for the second.

`CSc1ccc(C2=NN(C(=O)c3ccc(F)cc3)C(c3ccc(F)cc3)C2)cc1` (stereo unspecified) showed a TGI of 15.5 µM.

First: CSc1ccc(C2=NN(C(=O)c3ccc(F)cc3)C(c3ccc(F)cc3)C2)cc1 (stereo unspecified)
Second: Cc1ccccc1NC(=O)N/C(N)=N/c1nc(-c2cccc([N+](=O)[O-])c2)cs1
The GI50 of the first is 1.6-fold higher: 4.54 µM for the first, 2.76 µM for the second.

`CC[C@H](NC(=O)[C@H](C)NC)C(=O)N1C[C@@H](O)C[C@H]1Cc1c(-c2[nH]c3cc(F)ccc3c2C[C@@H]2C[C@H](O)CN2C(=O)[C@H](CC)NC(=O)[C@H](C)NC)[nH]c2cc(F)ccc12` gave a GI50 of 93.2 µM.
